Data reported in PubChem BioAssay (NCI).
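Dose response: 5 concentrations. Exposure: 48 h. Format: 96-well plates. Endpoint: linear interpolation; highest concentration if not reached. TGI: concentration producing complete growth inhibition.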

Columns and labels:
Assay in all cases: inhibition of tumour cell growth, NCI panel, 48 h
A549 NSCLC = test system: A549 NSCLC
EKVX NSCLC = test system: EKVX NSCLC
COLO 205 colon = test system: COLO 205 colon
HOP-92 NSCLC = test system: HOP-92 NSCLC
PC-3 prostate = test system: PC-3 prostate
LOX IMVI melanoma = test system: LOX IMVI melanoma
HOP-62 NSCLC = test system: HOP-62 NSCLC
ACHN renal = test system: ACHN renal
HCT-15 colon = test system: HCT-15 colon
OVCAR-4 ovarian = test system: OVCAR-4 ovarian
NCI-H460 lung = test system: NCI-H460 lung
OVCAR-5 ovarian = test system: OVCAR-5 ovarian
SK-OV-3 ovarian = test system: SK-OV-3 ovarian
IGROV1 ovarian = test system: IGROV1 ovarian
NCI-H226 lung = test system: NCI-H226 lung
M14 melanoma = test system: M14 melanoma
HL-60(TB) leukemia = test system: HL-60(TB) leukemia
UO-31 renal = test system: UO-31 renal
CAKI-1 renal = test system: CAKI-1 renal
HOP-18 NSCLC = test system: HOP-18 NSCLC

`O=c1c2ccccc2nc(-c2cc3c(cc2Cl)Sc2nccn2S3(=O)=O)n1-c1ccccc1` was tested, and the TGI (A549 NSCLC) was greater than 100 µM, the TGI (EKVX NSCLC) was 48 µM and the TGI (COLO 205 colon) was greater than 100 µM. The TGI (HOP-92 NSCLC) was 58.5 µM, the TGI (PC-3 prostate) was 30.8 µM and the TGI (LOX IMVI melanoma) was greater than 100 µM. For the same compound, the TGI (HOP-62 NSCLC) was 35.7 µM, the TGI (ACHN renal) was greater than 100 µM and the TGI (HCT-15 colon) was 33 µM. For the same compound, the TGI (OVCAR-4 ovarian) was 44.8 µM, the TGI (NCI-H460 lung) was greater than 100 µM and the TGI (OVCAR-5 ovarian) was greater than 100 µM. It also gave a TGI (SK-OV-3 ovarian) greater than 100 µM, a TGI (IGROV1 ovarian) greater than 100 µM and a TGI (NCI-H226 lung) greater than 100 µM. For the same compound, the TGI (M14 melanoma) was greater than 100 µM, the TGI (HL-60(TB) leukemia) was 15.5 µM and the TGI (UO-31 renal) was 31.7 µM. The TGI (CAKI-1 renal) was greater than 100 µM.
Compound `O=[N+]([O-])c1c(F)c(F)c2c(c1F)Nc1ccccc1S2` has a TGI (A549 NSCLC) of 36.9 µM, a TGI (EKVX NSCLC) of 16 µM and a TGI (COLO 205 colon) of 27.3 µM. It also gave a TGI (HOP-92 NSCLC) of 31 µM, a TGI (PC-3 prostate) of 22.4 µM and a TGI (LOX IMVI melanoma) of 3.39 µM. The TGI (HOP-62 NSCLC) was 27.6 µM, the TGI (ACHN renal) was 29.1 µM and the TGI (HCT-15 colon) was 12.6 µM. For the same compound, the TGI (OVCAR-4 ovarian) was 6.59 µM, the TGI (NCI-H460 lung) was 41.8 µM and the TGI (OVCAR-5 ovarian) was 26.5 µM. The TGI (SK-OV-3 ovarian) was 35.9 µM, the TGI (IGROV1 ovarian) was 8.64 µM and the TGI (NCI-H226 lung) was 35.2 µM. For the same compound, the TGI (M14 melanoma) was 10.4 µM, the TGI (HL-60(TB) leukemia) was 16.1 µM and the TGI (UO-31 renal) was 34 µM. For the same compound, the TGI (CAKI-1 renal) was 8.24 µM.
`C=C(CCOC)CCC1CCCCC(=C)[C@H]1OC(C)=O` (stereo partly drawn) showed a TGI (A549 NSCLC) greater than 100 µM, a TGI (EKVX NSCLC) greater than 100 µM and a TGI (COLO 205 colon) greater than 100 µM. The TGI (HOP-92 NSCLC) was greater than 100 µM, the TGI (PC-3 prostate) was greater than 100 µM and the TGI (LOX IMVI melanoma) was greater than 100 µM. It also gave a TGI (HOP-62 NSCLC) greater than 100 µM, a TGI (ACHN renal) greater than 100 µM and a TGI (HCT-15 colon) greater than 100 µM. For the same compound, the TGI (OVCAR-4 ovarian) was greater than 100 µM, the TGI (NCI-H460 lung) was greater than 100 µM and the TGI (OVCAR-5 ovarian) was greater than 100 µM. It also gave a TGI (SK-OV-3 ovarian) greater than 100 µM, a TGI (IGROV1 ovarian) greater than 100 µM and a TGI (NCI-H226 lung) greater than 100 µM. For the same compound, the TGI (M14 melanoma) was greater than 100 µM, the TGI (HL-60(TB) leukemia) was greater than 100 µM and the TGI (UO-31 renal) was greater than 100 µM. The TGI (CAKI-1 renal) was greater than 100 µM.
`COc1ccc(OC)c(-c2nc3n(c2/C=C2/C(=O)Nc4ccccc42)CCS3)c1` gave a TGI (A549 NSCLC) greater than 100 µM, a TGI (EKVX NSCLC) greater than 100 µM and a TGI (COLO 205 colon) greater than 100 µM. The TGI (HOP-92 NSCLC) was greater than 100 µM, the TGI (PC-3 prostate) was greater than 100 µM and the TGI (LOX IMVI melanoma) was greater than 100 µM. The TGI (HOP-62 NSCLC) was greater than 100 µM, the TGI (ACHN renal) was greater than 100 µM and the TGI (HCT-15 colon) was greater than 100 µM. The TGI (OVCAR-4 ovarian) was greater than 100 µM, the TGI (NCI-H460 lung) was greater than 100 µM and the TGI (OVCAR-5 ovarian) was greater than 100 µM. For the same compound, the TGI (SK-OV-3 ovarian) was greater than 100 µM, the TGI (IGROV1 ovarian) was greater than 100 µM and the TGI (NCI-H226 lung) was greater than 100 µM. It also gave a TGI (M14 melanoma) greater than 100 µM, a TGI (HL-60(TB) leukemia) greater than 100 µM and a TGI (UO-31 renal) greater than 100 µM. It also gave a TGI (CAKI-1 renal) greater than 100 µM.
Work on `CS(=O)(=O)OC1CCC2(C#N)CCC1C2=O` (stereo not drawn) yielded a TGI (A549 NSCLC) greater than 100 µM, a TGI (EKVX NSCLC) greater than 100 µM and a TGI (COLO 205 colon) greater than 100 µM. The TGI (HOP-18 NSCLC) was greater than 100 µM, the TGI (LOX IMVI melanoma) was greater than 100 µM and the TGI (HOP-62 NSCLC) was greater than 100 µM. It also gave a TGI (ACHN renal) greater than 100 µM, a TGI (HCT-15 colon) greater than 100 µM and a TGI (OVCAR-4 ovarian) greater than 100 µM. For the same compound, the TGI (NCI-H460 lung) was greater than 100 µM, the TGI (OVCAR-5 ovarian) was greater than 100 µM and the TGI (SK-OV-3 ovarian) was greater than 100 µM. For the same compound, the TGI (IGROV1 ovarian) was greater than 100 µM, the TGI (NCI-H226 lung) was greater than 100 µM and the TGI (M14 melanoma) was greater than 100 µM. The TGI (HL-60(TB) leukemia) was greater than 100 µM, the TGI (UO-31 renal) was greater than 100 µM and the TGI (CAKI-1 renal) was greater than 100 µM.
Compound `O=C1NCC(CSc2nc3cc(C4CCCc5c4[nH]c4ccccc54)ccc3o2)N1` (stereo not drawn) has a TGI (A549 NSCLC) greater than 100 µM, a TGI (EKVX NSCLC) greater than 100 µM and a TGI (COLO 205 colon) greater than 100 µM. It also gave a TGI (HOP-92 NSCLC) of 71.2 µM, a TGI (PC-3 prostate) greater than 100 µM and a TGI (LOX IMVI melanoma) greater than 100 µM. For the same compound, the TGI (HOP-62 NSCLC) was greater than 100 µM, the TGI (ACHN renal) was greater than 100 µM and the TGI (HCT-15 colon) was greater than 100 µM. The TGI (OVCAR-4 ovarian) was greater than 100 µM, the TGI (NCI-H460 lung) was greater than 100 µM and the TGI (OVCAR-5 ovarian) was greater than 100 µM. For the same compound, the TGI (SK-OV-3 ovarian) was greater than 100 µM, the TGI (IGROV1 ovarian) was greater than 100 µM and the TGI (NCI-H226 lung) was greater than 100 µM. For the same compound, the TGI (M14 melanoma) was greater than 100 µM, the TGI (HL-60(TB) leukemia) was greater than 100 µM and the TGI (UO-31 renal) was greater than 100 µM. For the same compound, the TGI (CAKI-1 renal) was greater than 100 µM.
